pIC50: −log10 of the molar value. Several values for one entry are separate records, joined by “and”; a condition that tells them apart may be missing. Equal entries are not always repeated. Where two headings read alike, the source gives them in different places.
Tests used:
Caco-2 cells = assay: Permeability, Caco-2 assay; type: in vitro ADME; details: 37 °C; for Mean Papp A to B: Caco-2, pH 7.40, 2 hours
Description: Permeability of test compounds was determined in Caco-2 Assay. Caco-2 cells purchased from ATCC were seeded onto […] membranes (PET) in 96-well Corning Insert plates at 1×10^5 cells/cm^2, and refreshed medium every 4~5 days until to the 21st to 28th day for confluent cell monolayer formation. The transport buffer in the study was HBSS with 10.0 mM HEPES at pH 7.40±0.05. Test compound was tested at […] bi-directionally in duplicate. Digoxin was tested at 10.0 μM bi-directionally in duplicate, while nadolol and metoprolol were tested at 2.00 μM in A to B direction in duplicate. Final DMSO concentration was adjusted to less than 1%. The plate was incubated for 2 hours in CO2 incubator at 37±1° C., with 5% CO2 at saturated humidity without shaking. And all samples after mixed with acetonitrile containing internal standard were centrifuged at 3200×g for 10 min. For nadolol and metoprolol, 200 μL supernatant solution was diluted with 600 μL ultra-pure water for LC-MS/MS analysis. For digoxin and test compounds, 200 μL supernatant solution was diluted with 200 μL ultra-pure water for LC-MS/MS analysis. Concentrations of test and control compounds in starting solution, donor solution, and receiver solution were quantified by LC-MS/MS methodologies, using peak area ratio of analyte/internal standard. After transport assay, lucifer yellow rejection assay was applied to determine the Caco-2 cell monolayer integrity.

[1] = system: LD1-0009-362391 PDX model; parameters: species or system NCG Mice; details: mouse, in vivo
Description: About 50-90 mg tumor pieces were implanted subcutaneously on the right flank of each mouse. The treatments were started when the mean tumor size reaches approximately 150 (100-300) mm^3. The tumor size was measured in two dimensions using a caliper, and the volume was expressed in mm^3 using the formula: V=0.5 a×b^2 where a and b are the long and short diameters of the tumor, respectively.
(§1) Mice were assigned into groups using randomized block design based on their tumor volumes. The test article administration and the animal numbers in each study group are shown in the following experimental design table 5, the PDX model information are shown in the table 6.
The PDX model is derived from a patient with invasive breast carcinoma, who received and progressed on multiple prior lines of treatment including docetaxel, epirubicin, cyclophosphamide, gemcitabine, lobaplatin, tamoxifen, nab-paclitaxel, cisplatin, capecitabine, palbociclib and letrozole.
(§2) For routine monitoring, all study animals were monitored for not only tumor growth but also behavior such as mobility, food, and water consumption (by cage side checking only), body weight (BW), eye/hair matting and any other abnormal effect. Any mortality and/or abnormal clinical signs were recorded.
The measurement of tumor size was conducted twice a week. The tumor size was measured in two dimensions using a caliper, and the volume will be expressed in mm^3 using the formula: V=0.5a×b^2 where a and b are the long and short diameters of the tumor, respectively. The tumor sizes are used for the calculations of T/C values. The T/C value (in percent) is an indication of antitumor efficacy, T/C=RTV of treated group/RTV of Control group, RTV=Vt/V0, Vt is the mean volume after treatment on a given day, V0 is the mean tumor volume at the beginning of administration. Meanwhile the tumor volume is used for calculation of TGI of each group according to the following formula: When Tti−Tt0 >0, TGI (%)=[1−(Tti−Tt0)/(Vci−Vc0)]×100; when Tti−Tt0<0, TGI (%)=[1−(Tti−Tt0)/Tt0]×100. […]

[2] = Body weight change in PDX study in NCG mice; type: in vivo; details: P.O QD × 27; all mice
Text: as §1, §2
Body weights of all animals were measured twice a week throughout the study. Body weight change, expressed in %, is calculated using the following formula: BWL (%)=(BWi−BW0)/BW0×100, BWi is the body weight, BW0 is the bodyweight on the first day of treatment.
The statistical software GraphPad Prism was used to analyze the difference in tumor volume and body weight between the treatment group and the vehicle control group. All the data is described as Mean±SEM, and one-way ANOVA analysis of variance was performed.

[3] = system: ER+/KAT6a^high ZR-75-1 breast cancer cell line; assay: In vitro cytotoxicity in ER+/KAT6a^high ZR-75-1 breast cancer cell line (CTG assay, 14 days); type: cell-based, Human
Description: Single agent experiments (n=3 per each compound) were performed to obtain the IC10, IC25, IC50 and IC75 values for each drug to be used hereafter in the combo treatment.
The cytotoxicity was evaluated by CTG assay upon 14 days of treatment and stimulation with 1 nM E2. Statistical analysis was performed by 2 way ANOVA Tukey's multiple comparison test (* 0.01<p<0.05).
Human ER+/KAT6A^high breast cancer cell line ZR-75-1 (ATCC, Virginia, US) was cultured in RPMI 1640 medium (Gibco, Life Technologies, Carlsbad, CA, USA) supplemented with 10% fetal bovine serum (FBS)(Sigma, Saint Louis, CA, USA). All cells were incubated at 37° C., 5% CO2, 80-95% relative humidity.
Stock solutions were added at appropriate concentration in culture medium before the addition to cells.
For the cytotoxicity assay, cells were previously starved 48 h in RPMI 1640 no phenol red supplemented with 8% charcoal stripped FBS, and then seeded at appropriate density (2000 cells/well) in starvation media the day before starting the treatment. […] Concentration range was previously identified in single agent cytotoxic assay for the same time points in order to include in the combination experiment IC10, IC25, IC50 and IC75 values for each drug. After 14 days of treatment, CellTiter-Glo® 2.0 Cell Viability Assay (CTG)(Promega, Madison, WI, USA) was added to assess cell viability. Luminescence was measured 10 min later using Tecan Infinite M200 (Tecan Trading AG, Switzerland).

[4] = single agent, 1 nM E2, read-out: IC50

Row | SMILES | Mean Papp A to B (Caco-2 cells) | other results
1 | COc1cccc(OC)c1S(=O)(=O)Nc1noc2cc(Oc3ccccn3)cc(OC)c12 [Compound 9, 2,6-dimethoxy-N-(4-methoxy-6-(pyridin-2-yloxy)benzo[d]isoxazol-3-yl)benzenesulfonamide] | 11.8 10^-6 cm/s | 
2 | COc1cccc(OC)c1S(=O)(=O)Nc1noc2cc(Cn3cccn3)c3c(c12)OCCC3 [Compound 14, N-(5-((1H-pyrazol-1-yl)methyl)-3,4-dihydro-2H-chromeno[8,7-d]isoxazol-9-yl)-2,6-dimethoxybenzenesulfonamide] | 0.439 10^-6 cm/s | 
3 | COc1cccc(OC)c1S(=O)(=O)Nc1noc2cc(Cn3cccn3)c3c(c12)OCCCC3 [Compound 19, N-(6-((1H-pyrazol-1-yl)methyl)-2,3,4,5,9,10-hexahydrooxepino [3′,2′: 5,6]benzo[1,2-d]isoxazol-10-yl)-2,6-dimethoxybenzenesulfonamide] | 3.47 10^-6 cm/s | 
4 | COc1cccc(OC)c1S(=O)(=O)Nc1noc2cc(Oc3ccccn3)cc(OC(F)F)c12 [Compound 22, N-(4-(difluoromethoxy)-6-(pyridin-2-yloxy)benzo[d]isoxazol-3-yl)-2,6-dimethoxybenzenesulfonamide] | 3.45 10^-6 cm/s | 
5 | COc1cccc(OC)c1S(=O)(=O)Nc1noc2cc(Oc3ccccn3)c3c(c12)OCC3 [Compound 23, 2,6-dimethoxy-N-(4-(pyridin-2-yloxy)-2,3-dihydrobenzofuro[7,6-d]isoxazol-8-yl)benzenesulfonamide] | 1.30 10^-6 cm/s | 
6 | COc1cccc(OC)c1S(=O)(=O)Nc1noc2cc(Oc3ccccn3)c3c(c12)OCCC3 [Compound 24, 2,6-dimethoxy-N-(5-(pyridin-2-yloxy)-3,4-dihydro-2H-chromeno[8,7-d]isoxazol-9-yl)benzenesulfonamide] | 12.9 10^-6 cm/s | Efflux Ratio (Caco-2 cells; Caco-2, bi-directional, pH 7.40, 2 hours): 3.2
7 | COc1ccnc(OC)c1S(=O)(=O)Nc1noc2cc(Oc3ccccn3)c3c(c12)OCCC3 [Compound 28, 2,4-dimethoxy-N-(5-(pyridin-2-yloxy)-3,4-dihydro-2H-chromeno[8,7-d]isoxazol-9-yl)pyridine-3-sulfonamide] | 2.38 10^-6 cm/s | 
8 | COc1cccc(OC)c1S(=O)(=O)Nc1noc2cc(Cc3ccccn3)c3c(c12)OCCC3 [Compound 46, 2,6-dimethoxy-N-(5-(pyridin-2-ylmethyl)-3,4-dihydro-2H-chromeno[8,7-d]isoxazol-9-yl)benzenesulfonamide] | 2.66 10^-6 cm/s | 
9 | COc1cccc(OC)c1S(=O)(=O)Nc1noc2cc(Cc3nccs3)c3c(c12)OCCC3 [Compound 47] | 3.53 10^-6 cm/s | 
10 | COc1cc(C)nc(OC)c1S(=O)(=O)Nc1noc2cc(Oc3nccs3)cc(OCF)c12 [Compound 55, N-(4-(fluoromethoxy)-6-(thiazol-2-yloxy)benzo[d]isoxazol-3-yl)-2,4-dimethoxy-6-methylpyridine-3-sulfonamide] | 1.46 10^-6 cm/s | 
11 | COc1ccccc1S(=O)(=O)Nc1noc2cc(Oc3nccs3)cc(OCF)c12 [Compound 56, N-(4-(fluoromethoxy)-6-(thiazol-2-yloxy)benzo[d]isoxazol-3-yl)-2-methoxybenzenesulfonamide] | 5.28 10^-6 cm/s | 
12 | COc1cc(C)nc(OC)c1S(=O)(=O)Nc1noc2cc(Oc3nccs3)cc(OC)c12 [Compound 57, 2,4-dimethoxy-N-(4-methoxy-6-(thiazol-2-yloxy)benzo[d]isoxazol-3-yl)-6-methylpyridine-3-sulfonamide] | 3.38 10^-6 cm/s | TGI [1]: 67.7% and 83.8%; anti-tumor activity [1]: potent and dose-dependent anti-tumor activity; mean endpoint TV (tumor volume) [1]: 239 mm^3 and 189 mm^3; body weight [2]: maintained the body weight well; pIC50 ([3]; combination experiments, compound alone, 1 nM E2 (FIG. 3B), read-out: IC50 of dose-response curve, used alone (combination experiments)): 8.42; IC10 ([3]; single agent, 1 nM E2): 0.0003 µM; IC25 ([3]; single agent, 1 nM E2): 0.0012 µM; IC75 ([3]; single agent, 1 nM E2): 0.015 µM; pIC50 [3, 4]: 8.40; pIC50 ([3]; with elacestrant (IC25, 56 nM), 1 nM E2 (FIG. 3B), read-out: IC50 of dose-response curve, in combination with elacestrant): 9.10
13 | COc1cccc(OC)c1S(=O)(=O)Nc1noc2cc(Oc3nccs3)cc(OC)c12 [Compound 59, 2,6-dimethoxy-N-(4-methoxy-6-(thiazol-2-yloxy)benzo[d]isoxazol-3-yl)benzenesulfonamide] | 6.20 10^-6 cm/s | 
14 | COc1ccccc1S(=O)(=O)Nc1noc2cc(Oc3nccs3)cc(OC)c12 [Compound 60, 2-methoxy-N-(4-methoxy-6-(thiazol-2-yloxy)benzo[d]isoxazol-3-yl)benzenesulfonamide] | 13.7 10^-6 cm/s | 
15 | COc1ccccc1S(=O)(=O)Nc1noc2cc(Oc3nccs3)c3c(c12)OCCC3 [Compound 61, 2-methoxy-N-(5-(thiazol-2-yloxy)-3,4-dihydro-2H-chromeno[8,7-d]isoxazol-9-yl)benzenesulfonamide] | 9.38 10^-6 cm/s | 
16 | COc1cccc(OC)c1S(=O)(=O)Nc1noc2cc(Oc3nccs3)c3c(c12)OCCCC3 [Compound 62, 2,6-dimethoxy-N-(6-(thiazol-2-yloxy)-2,3,4,5,9,10-hexahydrooxepino [3′,2′: 5,6]benzo[1,2-d]isoxazol-10-yl)benzenesulfonamide] | 10.6 10^-6 cm/s | 
17 | COc1ccccc1S(=O)(=O)Nc1noc2cc(Oc3nccs3)c3c(c12)OCCCC3 [Compound 63] | 6.48 10^-6 cm/s | 
18 | COc1cc(C)nc(OC)c1S(=O)(=O)Nc1noc2cc(Oc3nccs3)c3c(c12)OCCCC3 [Compound 64] | 9.00 10^-6 cm/s | 
19 | COc1ccccc1S(=O)(=O)Nc1noc2cc(Cn3cccn3)cc(OC)c12 [Compound 70] |  | body weight [2]: maintained the body weight well
20 | CCNCCc1ccc(CN(CC)c2cc(OC)ccc2[C@@H]2CCc3cc(O)ccc3C2)cc1 [elacestrant, reference compound] |  | pIC50 ([3]; elacestrant single agent, 1 nM E2, read-out: IC50 (cytotoxic action)): 6.59; IC25 ([3]; elacestrant, 1 nM E2): 0.056 µM; IC10 ([3]; single agent, 1 nM E2): 0.01 µM; IC25 ([3]; single agent, 1 nM E2): 0.056 µM; IC75 ([3]; single agent, 1 nM E2, non clinically relevant dose): 1.43 µM; pIC50 [3, 4]: 6.59
